Assay results reported in PMC10985088, “Synthesis and biological evaluation of echinomycin analogues as potential colon cancer agent” (Scientific Reports, 2024).
Values joined by “and” are separate entries in the source; they are usually repeats but may differ in a detail not shown here. Equal values may be shown once.

Key:
[1] = test system: MIA PaCa-2 cells; conditions: read-out: IC50 MIA PaCa-2; human pancreatic carcinoma cell, 72 h, mean ± SE (n = 3)
Protocol: (§1) With a range of chromophore analogues in hand, their toxicity to SW620 cells was investigated by WST assays.
(§2) Basically, the evaluation was performed using methods previously reported by our group[20],[23]. Cytotoxic activities of compounds against MIA PaCa-2 (American Type Culture Collection), SW620 (European Collection of Authenticated Cell Cultures) were measured by WST-8 assay according to manufacturer’s protocol. Briefly, cells (1 × 10^4 cells/well) in a 96-well plate were cultured in medium (for MIA PaCa-2, D-MEM (Wako, Japan) containing 10% fetal bovine serum (Funakoshi, Japan), 100 units/mL penicillin G and 100 µg/mL streptomycin (Wako, Japan), for SW620, RPMI-1640 (Wako, Japan) containing 10% fetal bovine serum, 100 units/mL penicillin G and 100 µg/mL streptomycin) were cultured at 37 °C for 24 h under 5% CO2 atmosphere. Then, cells were treated with test compounds (final DMSO concentration was 1%) at 37 °C for 72 h under 5% CO2 atmosphere. Then, cells were treated with a solution of Cell Counting Kit-8® (Dojindo, Japan) for 3 h. After that, cell viabilities were determined based on the measurement of absorption at 450 nm of the wells by using TECAN Infinite® M200 microplate reader. The results were expressed as a percentage of the negative control (cells treated with DMSO only), and that value was fixed at 100%.

[2] = test system: SW620 cells; test: WST-8 cytotoxicity assay, SW620; conditions: for IC50: read-out: IC50 SW620, human colon cancer cell, 72 h, mean ± SE (n = 3)
Protocol: as §1, §2

| SMILES | IC50 [1] [µM] | IC50 [2] | cytotoxicity to SW620 cells (in words) [2] |
| --- | --- | --- | --- |
| CC(C)[C@H]1C(=O)OC[C@@H](NC(=O)c2cnc3ccccc3c2)C(=O)N[C@@H](C)C(=O)N(C)[C@H]2CSC[C@@H](C(=O)N1C)N(C)C(=O)[C@H](C)NC(=O)[C@H](NC(=O)c1cnc3ccccc3c1)COC(=O)[C@H](C(C)C)N(C)C2=O [Compound 5, {N-(Quinoline-3-carbonyl)-D-Ser-L-Ala-N-Boc-N-Me-L-Cys-N-Me-L-Val}2 sulfide] | 0.399 ± 0.076 | 1.21 ± 0.035 µM |  |
| CC(C)[C@H]1C(=O)OC[C@@H](NC(=O)c2ccc3ncccc3c2)C(=O)N[C@@H](C)C(=O)N(C)[C@H]2CSC[C@@H](C(=O)N1C)N(C)C(=O)[C@H](C)NC(=O)[C@H](NC(=O)c1ccc3ncccc3c1)COC(=O)[C@H](C(C)C)N(C)C2=O [Compound 6, {N-(Quinoline-6-carbonyl)-D-Ser-L-Ala-N-Boc-N-Me-L-Cys-N-Me-L-Val}2 sulfide] | 0.327 ± 0.066 | 1.19 ± 0.187 µM |  |
| CC(C)[C@H]1C(=O)OC[C@@H](NC(=O)c2ccc(C(=O)c3ccccc3)cc2)C(=O)N[C@@H](C)C(=O)N(C)[C@H]2CSC[C@@H](C(=O)N1C)N(C)C(=O)[C@H](C)NC(=O)[C@H](NC(=O)c1ccc(C(=O)c3ccccc3)cc1)COC(=O)[C@H](C(C)C)N(C)C2=O [Compound 18, {N-(4-Benzoylphenylcarbonyl)-D-Ser-L-Ala-N-Boc-N-Me-L-Cys-N-Me-L-Val}2 sulfide] | > 10 | > 10 µM | lost their cytotoxicity |
| CC(C)[C@H]1C(=O)OC[C@@H](NC(=O)c2ccc3cc[nH]c3c2)C(=O)N[C@@H](C)C(=O)N(C)[C@H]2CSC[C@@H](C(=O)N1C)N(C)C(=O)[C@H](C)NC(=O)[C@H](NC(=O)c1ccc3cc[nH]c3c1)COC(=O)[C@H](C(C)C)N(C)C2=O [Compound 11, {N-(Indol-6-carbonyl)-D-Ser-L-Ala-N-Boc-N-Me-L-Cys-N-Me-L-Val}2 sulfide] | > 10 | > 10 µM |  |
| CC(C)[C@H]1C(=O)OC[C@@H](NC(=O)c2ccc3ccccc3n2)C(=O)N[C@@H](C)C(=O)N(C)[C@H]2CSC[C@@H](C(=O)N1C)N(C)C(=O)[C@H](C)NC(=O)[C@H](NC(=O)c1ccc3ccccc3n1)COC(=O)[C@H](C(C)C)N(C)C2=O [Compound 4] | 0.0058 ± 0.0009 | 0.0205 ± 0.0031 µM | slightly better cytotoxicity than 2 |
| CC(C)[C@H]1C(=O)OC[C@@H](NC(=O)c2cc3ccccc3[nH]2)C(=O)N[C@@H](C)C(=O)N(C)[C@H]2CSC[C@@H](C(=O)N1C)N(C)C(=O)[C@H](C)NC(=O)[C@H](NC(=O)c1cc3ccccc3[nH]1)COC(=O)[C@H](C(C)C)N(C)C2=O [Compound 8, {N-(Indol-2-carbonyl)-D-Ser-L-Ala-N-Boc-N-Me-L-Cys-N-Me-L-Val}2 sulfide] | > 10 | > 10 µM |  |
| CC(C)[C@H]1C(=O)OC[C@@H](NC(=O)c2ccc3[nH]ccc3c2)C(=O)N[C@@H](C)C(=O)N(C)[C@H]2CSC[C@@H](C(=O)N1C)N(C)C(=O)[C@H](C)NC(=O)[C@H](NC(=O)c1ccc3[nH]ccc3c1)COC(=O)[C@H](C(C)C)N(C)C2=O [Compound 10, {N-(Indol-5-carbonyl)-D-Ser-L-Ala-N-Boc-N-Me-L-Cys-N-Me-L-Val}2 sulfide] | > 10 | > 10 µM |  |
| CC(C)[C@H]1C(=O)OC[C@@H](NC(=O)c2cnccn2)C(=O)N[C@@H](C)C(=O)N(C)[C@H]2CSC[C@@H](C(=O)N1C)N(C)C(=O)[C@H](C)NC(=O)[C@H](NC(=O)c1cnccn1)COC(=O)[C@H](C(C)C)N(C)C2=O [Compound 20, {N-(Pyradine-2carbonyl)-D-Ser-L-Ala-N-Boc-N-Me-L-Cys-N-Me-L-Val}2 sulfide] |  |  | lost their cytotoxicity |
| CC(C)[C@H]1C(=O)OC[C@@H](NC(=O)c2ccc3ncoc3c2)C(=O)N[C@@H](C)C(=O)N(C)[C@H]2CSC[C@@H](C(=O)N1C)N(C)C(=O)[C@H](C)NC(=O)[C@H](NC(=O)c1ccc3ncoc3c1)COC(=O)[C@H](C(C)C)N(C)C2=O [Compound 16, {N-(Benzoxazole-6-carbonyl)-D-Ser-L-Ala-N-Boc-N-Me-L-Cys-N-Me-L-Val}2 sulfide] | > 10 | > 10 µM |  |
| CC(C)[C@H]1C(=O)OC[C@@H](NC(=O)c2ccc3c(c2)C(=O)c2ccccc2C3=O)C(=O)N[C@@H](C)C(=O)N(C)[C@H]2CSC[C@@H](C(=O)N1C)N(C)C(=O)[C@H](C)NC(=O)[C@H](NC(=O)c1ccc3c(c1)C(=O)c1ccccc1C3=O)COC(=O)[C@H](C(C)C)N(C)C2=O [Compound 19, {N-(Anthraquinone-2carbonyl)-D-Ser-L-Ala-N-Boc-N-Me-L-Cys-N-Me-L-Val}2 sulfide] | > 10 | > 10 µM | lost their cytotoxicity |
| CC(C)[C@H]1C(=O)OC[C@@H](NC(=O)c2ccc3ccccc3c2)C(=O)N[C@@H](C)C(=O)N(C)[C@H]2CSC[C@@H](C(=O)N1C)N(C)C(=O)[C@H](C)NC(=O)[C@H](NC(=O)c1ccc3ccccc3c1)COC(=O)[C@H](C(C)C)N(C)C2=O [Compound 7, {N-(Naphthalene-2-carbonyl)-D-Ser-L-Ala-N-Boc-N-Me-L-Cys-N-Me-L-Val}2 sulfide] | > 10 | > 10 µM | completely diminished activity |
| CC(C)[C@H]1C(=O)OC[C@@H](NC(=O)c2cc3ccccc3o2)C(=O)N[C@@H](C)C(=O)N(C)[C@H]2CSC[C@@H](C(=O)N1C)N(C)C(=O)[C@H](C)NC(=O)[C@H](NC(=O)c1cc3ccccc3o1)COC(=O)[C@H](C(C)C)N(C)C2=O [Compound 13, {N-(Benzofurane-2-carbonyl)-D-Ser-L-Ala-N-Boc-N-Me-L-Cys-N-Me-L-Val}2 sulfide] | > 10 | > 10 µM |  |
| CC(C)[C@H]1C(=O)OC[C@@H](NC(=O)c2cnc3ccccc3n2)C(=O)N[C@@H](C)C(=O)N(C)[C@H]2CSC[C@@H](C(=O)N1C)N(C)C(=O)[C@H](C)NC(=O)[C@H](NC(=O)c1cnc3ccccc3n1)COC(=O)[C@H](C(C)C)N(C)C2=O [Compound 2] | 0.0081 ± 0.001 | 0.026 µM and 0.0256 µM |  |
| CC(C)[C@H]1C(=O)OC[C@@H](NC(=O)c2c[nH]c3ccccc23)C(=O)N[C@@H](C)C(=O)N(C)[C@H]2CSC[C@@H](C(=O)N1C)N(C)C(=O)[C@H](C)NC(=O)[C@H](NC(=O)c1c[nH]c3ccccc13)COC(=O)[C@H](C(C)C)N(C)C2=O [Compound 9, {N-(Indol-3-carbonyl)-D-Ser-L-Ala-N-Boc-N-Me-L-Cys-N-Me-L-Val}2 sulfide] | > 10 | > 10 µM |  |
| CC(C)[C@H]1C(=O)OC[C@@H](NC(=O)c2ccc3ocnc3c2)C(=O)N[C@@H](C)C(=O)N(C)[C@H]2CSC[C@@H](C(=O)N1C)N(C)C(=O)[C@H](C)NC(=O)[C@H](NC(=O)c1ccc3ocnc3c1)COC(=O)[C@H](C(C)C)N(C)C2=O [Compound 15, {N-(Benzoxazole-5-carbonyl)-D-Ser-L-Ala-N-Boc-N-Me-L-Cys-N-Me-L-Val}2 sulfide] | > 10 | > 10 µM |  |
| CC(C)[C@H]1C(=O)OC[C@@H](NC(=O)c2ccc3ncsc3c2)C(=O)N[C@@H](C)C(=O)N(C)[C@H]2CSC[C@@H](C(=O)N1C)N(C)C(=O)[C@H](C)NC(=O)[C@H](NC(=O)c1ccc3ncsc3c1)COC(=O)[C@H](C(C)C)N(C)C2=O [Compound 17] | > 10 | > 10 µM |  |
| CC(C)[C@H]1C(=O)OC[C@@H](NC(=O)c2cc3ccccc3s2)C(=O)N[C@@H](C)C(=O)N(C)[C@H]2CSC[C@@H](C(=O)N1C)N(C)C(=O)[C@H](C)NC(=O)[C@H](NC(=O)c1cc3ccccc3s1)COC(=O)[C@H](C(C)C)N(C)C2=O [Compound 14, {N-(Benzothiophene-2-carbonyl)-D-Ser-L-Ala-N-Boc-N-Me-L-Cys-N-Me-L-Val}2 sulfide] | > 10 | > 10 µM |  |
| CC(C)[C@H]1C(=O)OC[C@@H](NC(=O)c2cccc3cc[nH]c23)C(=O)N[C@@H](C)C(=O)N(C)[C@H]2CSC[C@@H](C(=O)N1C)N(C)C(=O)[C@H](C)NC(=O)[C@H](NC(=O)c1cccc3cc[nH]c13)COC(=O)[C@H](C(C)C)N(C)C2=O [Compound 12, {N-(Indol-7-carbonyl)-D-Ser-L-Ala-N-Boc-N-Me-L-Cys-N-Me-L-Val}2 sulfide] | > 10 | > 10 µM |  |
